{"source": "patent US8685666B2", "about": "“ARL-1 specific antibodies and uses thereof” (The Board of Trustees of Southern Illinois University, priority 2007, dated 2014)", "key": {"[1]": {"system": "AKR1B10 (ARL-1) secretion", "assay": "ARL-1 secretion into culture medium (sandwich ELISA and Western blot)", "type": "cell-based, human", "description": "Soluble proteins are secreted by either the classical or nonclassical pathway (Nickel et al., Eur J. Biochem. 270: 2109-2119, 2003). In the classical protein secretion pathway, a secretory protein is translocated by an N-terminal signal peptide into endoplasmic reticulum and Golgi complex concomitant with protein synthesis. Thus, this pathway is affected by inhibitors of protein synthesis and protein transport from ER to Golgi. […] HCT-8 cells (1.25×10^5) were cultured in 12-well plates overnight and the next day the cells were exposed to 15 μg/ml of protein synthesis inhibitor cycloheximide in fresh serum-free medium. Medium was collected at different time points for sandwich ELISA and Western blot analysis. […] Next, the effects of an ER-Golgi pathway inhibitor were examined. HCT-8 and NCI-460 cells (1.25×10^5) were cultured in 12-well plates overnight and then exposed to an ER-Golgi protein transport inhibitor brefeldin A at 0, 2, or 10 μg/ml in fresh serum-free medium for 6 hour. Medium was collected for sandwich ELISA and Western blot analysis. […] Statistic analysis was performed using Student's t test or Chi square tests, as appropriate, with INSTAT statistical analysis package (Graph Pad Software, CA), for statistical significance at p<0.05.\nAt 30 min before harvest, ATP (1 mM) was added and the medium was subjected to sandwich ELISA and Western blot analysis. In addition, HCT-8 cells (1.25×10^5) were seeded into 12-well plates and exposed to Ca^2+ ions (100 μM) or ionomycin at 1 or 2 μM in serum-free medium for 30 min and the medium was harvested for sandwich ELISA and Western blot analysis. […]\nProteins that are secreted via the lysosome-mediated pathway are often translocated into lysosomes by the ABC transporters (Hamon et al., Blood 90: 2911-2915, 1997). To understand the transmembrane mechanism of ARL-1, HCT-8 cells (1.25×10^5) were cultured in 12-well plates overnight and then exposed to ABC transporter inhibitor GLIB (glibenclamide) or DIDS (4,4′-diisothiocyanatostilbene-2,2′-disulfonic acid) (Sigma, Mo.) in serum-free medium for 2 hours. ATP (1 mM) was added 30 min before harvest. Medium and cells were collected for sandwich ELISA and Western blot analysis."}, "[2]": {"system": "HCT-8 cells", "assay": "Mechanism of acrolein-induced cell death in HCT-8 cells with ARL-1 knockdown (flow cytometry, LDH efflux)", "type": "cell-based, human", "settings": "25 μM", "description": "The mechanisms of cell death induced by reactive carbonyls were investigated by flow cytometry and lactate dehydrogenase leakage assay. For flow cytometry assay, cells (with ARL-1 knockdown) were incubated with acrolein (25 μM) for 24 hours. After medium was gently removed, cells were washed with cold PBS and trypsinized. Cells in PBS and trypsin digestion were pooled, washed with PBS twice at 1200 rpm for 10 min, and then subjected to immediate propidium iodide (PI) and annexin V-FITC staining for 10 minutes in the dark as set forth in Yuan et al. (2004, Oncogene 23: 5843-5852, 2004). FACScan analysis was performed using a FACScan cytometer (Becton Dickinson, Calif.).\nFor lactate dehydrogenase (LDH) efflux assays, cells were plated at 5×10^4 cells/well in 12-well plates and exposed to 25 μM of acrolein for 12 hours. Medium was collected and cells were lysed for 10 min in 0.5% (v/v) Triton X-100 in 0.1 M potassium phosphate buffer (pH 7.4). Supernatants were collected by centrifugation at 10,000×g for 5 min. LDH activity in medium and cell lysates was measured using LDH assay kit (Roche, Ind.). […] Absorbance at 490 nm was read in a microplate reader (Bio-Rad, CA), with 650 nm as a reference wavelength. LDH release was calculated as: LDH release (%)=[LDH in medium/(LDH in medium+LDH in cell lysate)]×100 (Koh and Choi, 1987, J Neurosci Methods 20: 83-90)."}, "[3]": {"settings": "HCT-8 cells, serum-free medium 2 hours, ATP 1 mM added 30 min before harvest"}, "[4]": {"settings": "HCT-8 cells, serum-free medium 30 min, Ca2+ ions 100 μM, ionomycin 1 or 2 μM"}, "[5]": {"settings": "HCT-8 cells, serum-free medium, ATP 1 mM 30 min before harvest, Mg2+ 2 mM and/or EDTA 1 mM for 2 hours"}}, "note": "“Also recorded” adds a separate entry of the source.", "data": [{"smiles": "COc1ccc(Cl)cc1C(=O)NCCc1ccc(S(=O)(=O)NC(=O)NC2CCCCC2)cc1", "note": "[GLIB, glibenclamide]", "values": [{"measurement": "ARL-1 secretion", "setting": "[1]; [3]", "value": "suppressed"}]}, {"smiles": "Cl.N", "note": "[NH4Cl]", "values": [{"measurement": "ARL-1 secretion", "setting": "[1]; 50 mM added simultaneously with the fresh serum-free medium", "value": "increased"}, {"measurement": "ARL-1 in freshly fed serum-free medium compared with control", "setting": "[1]; 50 mM for 2 hours before switch to fresh serum-free medium", "value": "significant decrease"}]}, {"smiles": "[Ca+2]", "note": "[Ca^2+ ions]", "values": [{"measurement": "ARL-1 secretion", "setting": "[1]; [4]", "value": "significantly stimulated"}]}, {"smiles": "C[C@H](CCC(=O)O)C[C@H](C)C[C@H](C)C(=O)/C=C(\\O)[C@H](C)C[C@H](C)C/C=C/[C@@H](C)[C@@H](O)[C@@H](C)[C@@H](O)C[C@@H]1CC[C@@](C)([C@H]2CC[C@@](C)([C@@H](C)O)O2)O1", "note": "[ionomycin]", "values": [{"measurement": "ARL-1 secretion", "setting": "[1]; [4]", "value": "significantly stimulated"}]}, {"smiles": "[Mg+2]", "note": "[Mg^2+]", "values": [{"measurement": "ARL-1 secretion", "setting": "[1]; [5]", "value": "blocked"}]}, {"smiles": "Nc1ncnc2c1ncn2[C@@H]1O[C@H](COP(=O)(O)OP(=O)(O)OP(=O)(O)O)[C@@H](O)[C@H]1O", "note": "[ATP]", "values": [{"measurement": "ARL-1 secretion", "setting": "[1]; [4]", "value": "synergistic role in Ca^2+-mediated stimulation"}, {"measurement": "ARL-1 secretion", "setting": "[1]; [5]", "value": "significantly stimulated"}]}, {"smiles": "O=S(=O)(O)c1cc(N=C=S)ccc1C=Cc1ccc(N=C=S)cc1S(=O)(=O)O", "note": "[DIDS, 4,4′-diisothiocyanatostilbene-2,2′-disulfonic acid]", "values": [{"measurement": "ARL-1 secretion", "setting": "[1]; [3]", "value": "suppressed"}]}, {"smiles": "C=CC=O", "note": "[acrolein]", "values": [{"measurement": "features of induced cell death", "setting": "[2]", "value": "LDH efflux and annexin V staining, a characteristic of oncosis"}]}, {"smiles": "C[C@@H]1C[C@@H]([C@H](O)CC2CC(=O)NC(=O)C2)C(=O)[C@@H](C)C1", "note": "[cycloheximide]", "values": [{"measurement": "ARL-1 secretion", "setting": "[1]; HCT-8 cells, 15 μg/ml, serum-free medium, up to 8 hours", "value": "not affected; also recorded: did not significantly affect secretion"}]}, {"smiles": "C[C@H]1CCC/C=C/[C@@H]2C[C@H](O)C[C@H]2[C@H](O)/C=C/C(=O)O1", "note": "[brefeldin A]", "values": [{"measurement": "ARL-1 secretion", "setting": "[1]; HCT-8 and NCI-460 cells, 0, 2, or 10 μg/ml, serum-free medium, 6 hour", "value": "not affected; also recorded: did not significantly affect secretion"}]}]}
